Measured values from patent US20140011870A1, “Methods of Treating Obesity Using an Effective Dose of a METAP-2 Inhibitor” (Zafgen, Inc., priority 2010, published 2014).

What was measured:
[1] = test system: adiponectin; test: Adiponectin levels in the serum of patients undergoing the trial; format: in vivo, human; settings: with treatment
Protocol: Obese patients were treated in three cohorts with intravenous administration of a formulation of the compound 6-O-(4-dimethylaminoethoxy)cinnamoyl fumagillol oxalate. The compound was intravenously administered to each patient of a cohort (except for a placebo cohort) twice weekly for at least 26 days. Each of patients in the three non-placebo cohorts received either 0.1 mg/m^2 (cohort 1); 0.3 mg/m^2 (cohort 2); or 0.9 mg/m^2 (cohort 3) doses of the compound at the time of administration. The trial was conducted under the appropriate government and medical supervision. Levels of adiponectin in the serum of patients undergoing the trial were also measured.

[2] = human, in vivo
Protocol: Obese patients were treated in three cohorts with intravenous administration of a formulation of the compound 6-O-(4-dimethylaminoethoxy)cinnamoyl fumagillol oxalate. The compound was intravenously administered to each patient of a cohort (except for a placebo cohort) twice weekly for at least 26 days. Each of patients in the three non-placebo cohorts received either 0.1 mg/m^2 (cohort 1); 0.3 mg/m^2 (cohort 2); or 0.9 mg/m^2 (cohort 3) doses of the compound at the time of administration. The trial was conducted under the appropriate government and medical supervision.
Table 1 summarizes body weight determination of the 9 patients in the 0.9 mg/m^2 cohort on the day of the first dose and prior to a second dose administered four days later.
There was a significant correlation between weight loss of patients and maintained exposure of 0.02 ng/mL of the drug above the level of quantitation of the assay 24 hours after dosing, as shown in FIG. 4 (circled data point is exposure of one poor responder below the level of quantitation of assay). The PK profile at day 26 is representative of steady state (see FIG. 5).

[3] = Visual Analog Scale reports of hunger in obese patients; format: in vivo, human; settings: successive biweekly dose administration, 0.9 mg/m^2 cohort
Protocol: FIG. 2 depicts VAS reports of hunger decline by approximately 50% with body weight change (percent) with biweekly dosing of f 0.1 mg/m^2, 0.3 mg/m^2, and 0.9 mg/m^2 (approximately 1.8 to 2.1 mg) of 6-O-(4-dimethylaminoethoxy)cinnamoyl fumagillol in human patients. Values are means (n=6 per dose level) of changes in fasted Visual Analog Scale scores for each visit day vs. Day 1 for population; p values derived from 2-way ANOVA with Bonferroni post-test comparisons (*, p<0.05; **, p<0.01 vs. placebo). Obese patients were treated in three cohorts with intravenous administration of a formulation of the compound 6-O-(4-dimethylaminoethoxy)cinnamoyl fumagillol oxalate. The compound was intravenously administered to each patient of a cohort (except for a placebo cohort) twice weekly for at least 26 days. Each of patients in the three non-placebo cohorts received either 0.1 mg/m^2 (cohort 1); 0.3 mg/m^2 (cohort 2); or 0.9 mg/m^2 (cohort 3) doses of the compound at the time of administration. The trial was conducted under the appropriate government and medical supervision. […] FIG. 1 depicts the body weight change (loss) as a percent before each administration of the biweekly dose for the 0.9 mg/m^2 cohort. FIG. 2 depicts the Visual Analog Scale reports of hunger decline about 50% following successive biweekly dose administration for the 0.9 mg/m^2 cohort.

[4] = Body weight in obese patients, twice weekly intravenous administration (clinical trial); format: in vivo, human; settings: for Dose at which weight loss efficacy is obtained: administered twice weekly
Protocol: Obese patients were treated in three cohorts with intravenous administration of a formulation of the compound 6-O-(4-dimethylaminoethoxy)cinnamoyl fumagillol oxalate. The compound was intravenously administered to each patient of a cohort (except for a placebo cohort) twice weekly for at least 26 days. Each of patients in the three non-placebo cohorts received either 0.1 mg/m^2 (cohort 1); 0.3 mg/m^2 (cohort 2); or 0.9 mg/m^2 (cohort 3) doses of the compound at the time of administration. The trial was conducted under the appropriate government and medical supervision. […] Table 1 summarizes body weight determination of the 9 patients in the 0.9 mg/m^2 cohort on the day of the first dose and prior to a second dose administered four days later. […] FIG. 1 depicts the body weight change (loss) as a percent before each administration of the biweekly dose for the 0.9 mg/m^2 cohort. FIG. 2 depicts the Visual Analog Scale reports of hunger decline about 50% following successive biweekly dose administration for the 0.9 mg/m^2 cohort. […] All of the subjects of the trial described in Example 1 received doses ranging from 1.8 to 2.2 mg with each administration (given twice weekly). However, weight change of was not strictly associated with dose delivered. Instead, response was strongly associated with dose administered per unit excess body weight, as compared to weight change associated with dose delivered per unit body weight.

[5] = listed as 6-O-(4-dimethylaminoethoxy)cinnamoyl fumagillol

With `CO[C@@H]1[C@H](OC(=O)/C=C/c2ccc(OCCN(C)C)cc2)CC[C@]2(CO2)[C@H]1[C@@]1(C)O[C@@H]1CC=C(C)C.O=C(O)C(=O)O` [6-O-(4-dimethylaminoethoxy)cinnamoyl fumagillol oxalate] as the compound, how does the “Increase in adiponectin concentrations” value [1] read?
Its value is “over 60%”.

What about the “Drug exposure at 24 hours post dose correlated with weight loss” value [2] of the same compound?
The value was “above 0.02 ng/mL”.

And the “terminal half life of the drug” value ([2]; iv)?
Its value is 5.4 h.

What about the “Visual Analog Scale reports of hunger decline” value [3] of the same compound?
Its value is “about 50%”.

What about the “Visual Analog Scale reports of hunger decline” value [3, 5] of the same compound?
The value was “approximately 50%”.

And the “Weight loss efficacy at low doses” value ([4]; 0.1 and 0.3 mg/m^2, twice weekly)?
The value was “Lack of efficacy”.

And the “body weight loss over 26 days of exposure” value ([4]; 7 of the 9 subjects treated at 0.9 mg/m^2, twice weekly)?
Its value is 3-4%.

And the “Dose at which weight loss efficacy is obtained” value [4]?
Its value is no less than 0.02 mg/kg.

What about the “Dose at which weight loss efficacy is obtained” value [4, 5] of the same compound?
Its value is roughly 0.02 mg/kg.

And the “Dose per kg of excess body weight needed to see effects” value ([4]; obese patients, twice weekly)?
The value was > 40 μg of drug per kg of excess body weight.
